# EP4603105A1, “PHARMACEUTICAL COMPOSITION CONTAINING CYCLIC COMPOUND HAVING SELECTIVE KRAS INHIBITORY EFFECT AGAINST HRAS AND NRAS” (CHUGAI SEIYAKU KABUSHIKI KAISHA, priority 2022, dated 2024)
# Read-outs that look alike come from different tables or passages of the source. *1 amine or outer side, *2 acyl side, *3 side chain or, on linkers, in order; H or OH if unused. Where a SMILES comes first, the peptide text is derived from it. Bridges are numbered along the chain shown (N, C = ends). [ ]: non-standard residue; d: D form. The star is where a group is joined. hPhe(3,5-F2-4-CF3) = N[C@@H](CCc1cc(F)c(C(F)(F)F)c(F)c1)C(=O)O; hPhe(3-Cl-4-CF3) = N[C@@H](CCc1ccc(C(F)(F)F)c(Cl)c1)C(=O)O; X42 = Cc1ccc(C[C@@H](C(=O)[*:2])N(CCC(F)(F)F)[*:1])cc1; NPrPhe(4-CF3) = CCCN[C@@H](Cc1ccc(C(F)(F)F)cc1)C(=O)O; X16 = O=C([C@@H](N[*:1])C1CC(F)(F)C1)[*:2]; NMeGly(cPent) = CN[C@H](C(=O)O)C1CCCC1; Gly(cPent) = N[C@H](C(=O)O)C1CCCC1; Hyp = O=C(O)[C@@H]1C[C@@H](O)CN1; NMeD = CN[C@@H](CC(=O)O)C(=O)O; NMeL = CN[C@@H](CC(C)C)C(=O)O; hPip = O=C(O)[C@@H]1CCCCCN1; Morpholide = C1CN(*)CCO1; NMeA = CN[C@@H](C)C(=O)O; Ac5c = NC1(C(=O)O)CCCC1; Aze = O=C(O)[C@@H]1CCN1; Sar = CNCC(=O)O
# How the values were obtained:
# HRAS wild-type protein = HRAS wild-type protein (Homo sapiens, UniProt P01112); test: Binding to HRAS by surface plasmon resonance (SPR), KD and KD ratio to KRAS
# Sequence of HRAS wild-type protein (P01112 whole entry): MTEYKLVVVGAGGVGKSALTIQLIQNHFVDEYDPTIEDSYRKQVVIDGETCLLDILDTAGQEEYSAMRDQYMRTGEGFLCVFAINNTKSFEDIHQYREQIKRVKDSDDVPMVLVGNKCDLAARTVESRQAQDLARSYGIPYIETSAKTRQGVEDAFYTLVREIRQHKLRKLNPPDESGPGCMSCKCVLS
# In short: (§1)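 Biotinylated GDP-bound RAS was captured at about 100–300 RU. Running buffer: HBS pH 7.4, 10 mM MgCl2, 10 µM GDP, 1 mM DTT, 0.01% Tween 20, 4% DMSO.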
# [1] = target: GDP-bound NRAS wild-type protein (Homo sapiens, UniProt P01111); test: Binding to NRAS by surface plasmon resonance (SPR), KD and KD ratio to KRAS
# Sequence of GDP-bound NRAS wild-type protein (P01111 whole entry): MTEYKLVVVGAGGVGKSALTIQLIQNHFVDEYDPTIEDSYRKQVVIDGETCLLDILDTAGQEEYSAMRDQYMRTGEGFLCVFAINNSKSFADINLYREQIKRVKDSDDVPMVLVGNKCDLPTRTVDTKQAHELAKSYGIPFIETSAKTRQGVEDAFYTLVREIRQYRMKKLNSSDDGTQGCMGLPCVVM
# In short: as §1
# [2] = tested on: human lung cancer strain NCI-H441; format: cell-based
# In short: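 Step one: dispense the test compound in serial DMSO dilutions. Step three: add the reagent and measure […].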
# [3] = ratio of KD for HRAS wild-type protein to KD for KRAS
# [4] = ratio of KD for GDP-bound NRAS wild-type protein to KD for KRAS
# [5] = NCI-H441 cells, 4 days, CellTiter-Glo, read-out: NCl-H441 IC50
# [6] = ratio of the KD value with respect to HRAS wild-type protein to the KD value with respect to KRAS
# [7] = ratio of the KD value with respect to GDP-bound NRAS wild-type protein to the KD value with respect to KRAS
# [8] = ratio of KD value for HRAS wild-type protein to KD value for KRAS (SPR)
# [9] = ratio of KD value for GDP-bound NRAS wild-type protein to KD value for KRAS (SPR)
SMILES,IC50 [2] [µM],HRAS /KRAS (HRAS wild-type protein; [3]),"NRAS /KRAS [1, 4]","IC50 [2, 5] [µM]",HRAS /KRAS (HRAS wild-type protein; [6]),"NRAS /KRAS [1, 7]",HRAS /KRAS (HRAS wild-type protein; [8]),"NRAS /KRAS [1, 9]"
CCC[C@H]1C(=O)N[C@@H]([C@@H](C)CC)C(=O)N(C)CC(=O)N(C)[C@H]2C/C=C\CCN(C2=O)[C@@H](Cc2ccc(C(F)(F)F)cc2)C(=O)N(C)CC(=O)N[C@@H](CCc2ccc(CC)c(OC)c2)C(=O)N2C[C@H](OCC)C[C@H]2C(=O)NC2(CC(C)(C)C2)C(=O)N(C)[C@@H](C2CCCC2)C(=O)N(C)[C@H](C(=O)N(C)C)CC(=O)N1C [PP2869],,A (a compound having 10 or more and less than 20 is denoted as A),A (a compound having 10 or more and less than 20 is denoted as A),0.0376,,,,
CCO[C@@H]1C[C@H]2C(=O)NC3(CC(C)(C)C3)C(=O)N(C)[C@@H](C(CC)CC)C(=O)N(C)[C@H](C(=O)N(C)C)CC(=O)N(C)[C@H]3CCCCCCc4ccc(cc4)C[C@@H](C(=O)N(C)CC(=O)N[C@@H](CCc4ccc(C(F)(F)F)c(OC)c4)C(=O)N2C1)N1CC/C=C\C[C@@H](C1=O)N(C)C(=O)CN(C)C(=O)[C@H]([C@@H](C)CC)NC3=O [PP3032],0.0021,A (a compound having 10 or more and less than 20 is denoted as A),AA (a compound having 20 or more is denoted as AA),,,,,
CCC[C@H]1C(=O)N[C@@H]([C@@H](C)CC)C(=O)N(C)CC(=O)N(C)[C@H]2C/C=C\CCN(C2=O)[C@@H](Cc2ccc(C)cc2)C(=O)N(C)CC(=O)N[C@@H](CCc2ccc(C(F)(F)F)c(Cl)c2)C(=O)N2C[C@H](OCC)C[C@H]2C(=O)NC2(CC(C)(C)C2)C(=O)N(C)[C@@H](CC(F)(F)F)C(=O)N(C)[C@H](C(=O)N(C)C)CC(=O)N1C [PP2226],0.0147,,,,A (a compound having 10 or more and less than 20 is denoted as A),A (a compound having 10 or more and less than 20 is denoted as A),,
CCC[C@H]1C(=O)N[C@@H]([C@@H](C)CC)C(=O)N(C2CC2)CC(=O)N(C)[C@H]2C/C=C\CCN(C2=O)[C@@H](Cc2ccc(C)cc2)C(=O)N(C)CC(=O)N[C@@H](CCc2ccc(C3CC3)c(C)c2)C(=O)N2C[C@H](OCC)C[C@H]2C(=O)NC2(CC(C)(C)C2)C(=O)N(C)[C@@H](C2CCCC2)C(=O)N(C)[C@H](C(=O)N(C)C)CC(=O)N1C [PP2886],,A (a compound having 10 or more and less than 20 is denoted as A),A (a compound having 10 or more and less than 20 is denoted as A),0.112,,,,
CCCC[C@H]1C(=O)N[C@@H]([C@@H](C)CC)C(=O)N(C)CC(=O)N(C)[C@H]2C/C=C\CCN(C2=O)[C@@H](Cc2ccc(C(F)(F)F)cc2)C(=O)N(C)CC(=O)N[C@@H](CCc2ccc(C(F)(F)F)c(Cl)c2)C(=O)N2C[C@H](OCC)C[C@H]2C(=O)NC2(CC(C)(C)C2)C(=O)N(C)[C@@H](C2CCCC2)C(=O)N(C)[C@H](C(=O)N(C)C)CC(=O)N1C [PP1750],0.0034,,,,,,B (a compound having 3 or more and less than 10 is denoted as B),A (a compound having 10 or more and less than 20 is denoted as A)
CCC[C@H]1C(=O)N[C@@H]([C@@H](C)CC)C(=O)N2CCC[C@H]2C(=O)N(C)[C@H]2C/C=C\CCN(C2=O)[C@@H](Cc2ccc(C)cc2)C(=O)N(C)CC(=O)N[C@@H](CCc2cc(F)c(C(F)(F)F)c(F)c2)C(=O)N2C[C@H](OCC)C[C@H]2C(=O)N(C)C2(CCC2)C(=O)N(C)[C@@H](C2CCCC2)C(=O)N(C)[C@H](C(=O)N2CCCCC2)CC(=O)N1C [PP3115],0.0057,B (a compound having 3 or more and less than 10 is denoted as B),A (a compound having 10 or more and less than 20 is denoted as A),,,,,
CCCN1C(=O)CN(C)C(=O)[C@@H]2CCN2C(=O)[C@H]([C@@H](C)CC)NC(=O)[C@H](CC(C)C)N(C)C(=O)C[C@@H](C(=O)N(C)C)NC(=O)[C@H](C2CCCC2)N(C)C(=O)C2(CCCC2)NC(=O)[C@@H]2C[C@@H](OCC)CN2C(=O)[C@H](CCc2ccc(C(F)(F)F)c(Cl)c2)NC(=O)CN(C)C(=O)[C@@H]1Cc1ccc(C(F)(F)F)cc1 [PP0377] ([NMeL]I[Aze][Sar][NPrPhe(4-CF3)][Sar][hPhe(3-Cl-4-CF3)][Hyp](Et)[Ac5c][NMeGly(cPent)]D-NMe2; lactam N-11),0.0334,C (A compound having a KD ratio of 0.1 or more and less than 3 is denoted as C),B (a compound having 3 or more and less than 10 is denoted as B),,,,,

# Second part, led by results:
IC50 [2] [µM],SMILES,HRAS /KRAS (HRAS wild-type protein; [3]),"NRAS /KRAS [1, 4]","IC50 [2, 5] [µM]",HRAS /KRAS (HRAS wild-type protein; [6]),"NRAS /KRAS [1, 7]",HRAS /KRAS (HRAS wild-type protein; [8]),"NRAS /KRAS [1, 9]"
0.0346,CC[C@H](C)[C@@H]1NC(=O)[C@H](CC(C)C)N(C)C(=O)C[C@@H](C(=O)N2CCOCC2)N(C)C(=O)[C@H](C2CCCC2)N(C)C(=O)C2(CCCC2)NC(=O)[C@@H]2CC(F)(F)CN2C(=O)[C@H](CCc2ccc(C(F)(F)F)c(Cl)c2)NC(=O)CN(C)C(=O)[C@H](Cc2ccc(F)cc2)N2CCCCC[C@@H](C2=O)N(C)C(=O)CN(C)C1=O [PP0966],B (a compound having 3 or more and less than 10 is denoted as B),B (a compound having 3 or more and less than 10 is denoted as B),,,,,
0.122,CC[C@H](C)[C@@H]1NC(=O)[C@H](COC)N(C)C(=O)C[C@@H](C(=O)N2CCOCC2)N(C)C(=O)[C@H](C2CCCC2)N(C)C(=O)C2(CCC2)NC(=O)[C@@H]2C[C@@H](OCC(C)C)CN2C(=O)[C@H](CCc2cc(F)c(C(F)(F)F)c(F)c2)NC(=O)CN(C)C(=O)[C@H](Cc2ccc(C(F)(F)F)cc2)N2CCCCC[C@@H](C2=O)N(C)C(=O)CN(C)C1=O [PP0839],B (a compound having 3 or more and less than 10 is denoted as B),B (a compound having 3 or more and less than 10 is denoted as B),,,,,
0.0413,CCCN1C(=O)CN(C)C(=O)CN(C)C(=O)[C@H]([C@@H](C)CC)NC(=O)[C@@H]2CCCCCN2C(=O)C[C@@H](C(=O)N2CCOCC2)N(C)C(=O)[C@H](C2CCCC2)N(C)C(=O)C2(CCCC2)NC(=O)[C@@H]2CCCN2C(=O)[C@H](CCc2ccc(C(F)(F)F)c(Cl)c2)NC(=O)CN(C)C(=O)[C@@H]1Cc1ccc(C(F)(F)F)cc1 [PP0247] ([hPip]I[Sar][Sar][NPrPhe(4-CF3)][Sar][hPhe(3-Cl-4-CF3)]P[Ac5c][NMeGly(cPent)][NMeD]-Morpholide; lactam N-11),C (A compound having a KD ratio of 0.1 or more and less than 3 is denoted as C),B (a compound having 3 or more and less than 10 is denoted as B),,,,,
0.0041,CC[C@H](C)[C@@H]1NC(=O)[C@H](CC(C)C)N(C)C(=O)C[C@@H](C(=O)N2CCOCC2)N(C)C(=O)[C@H](C2CCCC2)N(C)C(=O)C2(CCCC2)NC(=O)[C@@H]2CCCN2C(=O)[C@H](CCc2ccc(C(F)(F)F)c(Cl)c2)NC(=O)CN(C)C(=O)[C@H](Cc2ccc(C)cc2)N(CCC(F)(F)F)C(=O)[C@@H]2CCN2C(=O)[C@H](C)N(C)C1=O [PP0091] ([NMeL]I[NMeA][Aze][X42][Sar][hPhe(3-Cl-4-CF3)]P[Ac5c][NMeGly(cPent)][NMeD]-Morpholide; lactam N-11),B (a compound having 3 or more and less than 10 is denoted as B),C (A compound having a KD ratio of 0.1 or more and less than 3 is denoted as C),,,,,
0.0207,CCO[C@@H]1C[C@H]2C(=O)NC3(CC(C)(C)C3)C(=O)N(C)[C@@H](C3CCCC3)C(=O)N(C)[C@H](CC)CC(=O)N(C)[C@@H](CC3CC3)C(=O)N[C@@H]([C@@H](C)CC)C(=O)N(C)CC(=O)N(C)[C@H]3C/C=C\CCN(C3=O)[C@@H](Cc3ccc(C(F)(F)F)cc3)C(=O)N(C)CC(=O)N[C@@H](CCc3cc(F)c(C(F)(F)F)c(F)c3)C(=O)N2C1 [PP1629],,,,,,B (a compound having 3 or more and less than 10 is denoted as B),B (a compound having 3 or more and less than 10 is denoted as B)
0.0107,"CCCN1C(=O)CN(C)C(=O)CN(C)C(=O)[C@H](C2CC(F)(F)C2)NC(=O)[C@H](CC(C)C)N(C)C(=O)C[C@@H](C(=O)N(C)C)N(C)C(=O)[C@H](C2CCCC2)N(C)C(=O)C2(CCCC2)NC(=O)[C@@H]2CCCN2C(=O)[C@H](CCc2cc(F)c(C(F)(F)F)c(F)c2)NC(=O)CN(C)C(=O)[C@@H]1Cc1ccc(C(F)(F)F)cc1 [PP0748] ([NMeL][X16][Sar][Sar][NPrPhe(4-CF3)][Sar][hPhe(3,5-F2-4-CF3)]P[Ac5c][NMeGly(cPent)][NMeD]-NMe2; lactam N-11)",,,,B (a compound having 3 or more and less than 10 is denoted as B),B (a compound having 3 or more and less than 10 is denoted as B),,
0.0209,CC[C@H](C)[C@@H]1NC(=O)[C@H](CC(C)C)N(C)C(=O)C[C@@H](C(=O)N2CCOCC2)N(C)C(=O)[C@H](C2CCCC2)N(C)C(=O)C2(CCCCC2)NC(=O)[C@@H]2CCCN2C(=O)[C@H](CCc2cc(F)c(C(F)(F)F)c(F)c2)NC(=O)CN(C)C(=O)[C@H](Cc2ccc(C(F)(F)F)cc2)N2CCCC[C@@H](C2=O)N(C)C(=O)CN(C)C1=O [PP0561],,,,B (a compound having 3 or more and less than 10 is denoted as B),B (a compound having 3 or more and less than 10 is denoted as B),,
0.0037,CCCN1C(=O)[C@@H]2CCN2C(=O)[C@H](C)N(C)C(=O)[C@H](C2CCCC2)NC(=O)[C@H](CC(C)C)N(C)C(=O)C[C@@H](C(=O)N2CCOCC2)N(C)C(=O)[C@H](C2CCCC2)N(C)C(=O)C2(CCCC2)NC(=O)[C@@H]2CCCN2C(=O)[C@H](CCc2ccc(C(F)(F)F)c(Cl)c2)NC(=O)CN(C)C(=O)[C@@H]1Cc1ccc(C(F)(F)F)cc1 [PP0272] ([NMeL][Gly(cPent)][NMeA][Aze][NPrPhe(4-CF3)][Sar][hPhe(3-Cl-4-CF3)]P[Ac5c][NMeGly(cPent)][NMeD]-Morpholide; lactam N-11),B (a compound having 3 or more and less than 10 is denoted as B),C (A compound having a KD ratio of 0.1 or more and less than 3 is denoted as C),,,,,
